Measurements from US6642222B2, “Pyrano, piperidino, and thiopyrano compounds and methods of use” (Abbott Laboratories, priority 1998, dated 2003).

Assays:
Landrace Pig Bladder = test: Functional potassium channel opening activity in isolated bladder strips (field-stimulated twitch); details: for Index: ED50 for P1075 divided by ED50 for the test agonist, averaged over tissues; for Efficacy (% P1075) / Emax: maximal efficacy relative to P1075, field stimulated bladder strips; for pD2 / EC50: negative logarithm of ED50; for Emax / EC50: Sus scrofa; for EC50: read-out: pD2 (converted)
Method: Compounds were evaluated for functional potassium channel opening activity using tissue strips obtained from Landrace pig bladders. Landrace pig bladders were obtained from female Landrace pigs of 9-30 kg. Landrace pigs were euthanized with an intraperitoneal injection of pentobarbital solution, Somlethal®, J. A. Webster Inc. Sterling Mass. The entire bladder was removed and immediately placed into Krebs Ringer bicarbonate solution (composition, mM: NaCl, 120; […] Dextrose, 4.7; […] Propranolol (0.004 mM) was included in all of the assays to block β-adrenoceptors. The trigonal and dome portions were […], Strips 3-5 […] (mm) wide and 20 mm long were prepared from the remaining tissue cut in a circular fashion. The mucosal layer was removed. One end was fixed to a stationary glass rod and the other to a Grass FT03 transducer at a basal preload of 1.0 g. Two parallel platinum electrodes were included in the stationary glass trod to provide field stimulation of 0.05 Hz, 0.5 milli-seconds at 20 volts. […] Tissues were allowed to equilibrate for at least 60 minutes and primed with 80 mM KCl. A control concentration response curve (cumulative) was generated for each tissue using the potassium channel opener […] as the control agonist. […] After a 60 minute rinsing period, a concentration response curve (cumulative) was generated for the test agonist in the same fashion as that used for the control agonist […]. The maximal efficacy of each compounds (expressed as % relative to […]) is reported. The amount of agent necessary to cause 50% of the agent's maximal response (ED50) was calculated using “ALLFIT” (DeLean et al., Am. J. […] Agonist potencies were also expressed as an index relative to […]. The index was calculated by dividing the ED50 for […] by the ED50 for the test agonist in a given tissue. Each tissue was used for only one test agonist, and the indices obtained from each tissue were averaged to provide an average index of potency.

[1] = test system: Guinea-Pig Bladder (GPB) Cells; test: Membrane Hyperpolarization (MHP) assay, DiBAC(4)3 / FLIPR; details: for Maximal Response (% P1075): maximal steady-state hyperpolarization, normalized to 10 μM P1075 (100%); for EC50: membrane hyperpolarization, GPB cells; for Emax: read-out: Maximal Response (% P1075), maximal steady-state hyperpolarization, normalized to 10 μM P1075 (100%)

Row | SMILES | EC50 [1] | EC50 (Landrace Pig Bladder) | EC50 ([1]; Cavia porcellus) | EC50 ([1]; Hydrochloride) | Index (Landrace Pig Bladder) | Efficacy (% P1075) (Landrace Pig Bladder) | pD2 (Landrace Pig Bladder) | Maximal Response (% P1075) [1] | Emax (Landrace Pig Bladder) | Emax ([1]; Cavia porcellus) | Index (Landrace Pig Bladder; Hydrochloride) | pD2 (Landrace Pig Bladder; Hydrochloride) | Maximal Response (% P1075) ([1]; Hydrochloride) | Efficacy (% P1075) (Landrace Pig Bladder; Hydrochloride)
1 | O=C1COCC2=C1C(c1csc([N+](=O)[O-])c1)C1=C(COCC1=O)N2 [Example 36, 5-(5-nitro-3-thienyl)-5,10-dihydro-1H,3H-dipyrano[3,4-b:4,3-e]pyridine-4,6(7H,9H)-dione] | 82 nM | – | – | – | 0.24 | 100 % P1075 | 6.5 | 98 % P1075 | – | – | – | – | – | –
2 | O=C1COCC2=C1C(c1ccc(F)c(I)c1)C1=C(CCS1(=O)=O)N2 (stereo not drawn) [Example 37, 9-(4-fluoro-3-iodophenyl)-2,3,5,9-tetrahydro-4H-pyrano[3,4-b]thieno[2,3-e]pyridin-8(7H)-one 1,1-dioxide] | – | 50.1 nM | 0.64 nM | – | 2.1 | – | – | – | 95% | 105% | – | – | – | –
3 | Cl.O=C1CCC2=C1C(c1ccc(F)c(Br)c1)C1=C(CNCC1=O)N2 (single isomer, unassigned; (+)) [Example 6, (+)-5-(3-bromo-4-fluorophenyl)-2,3,5,7,8,9-hexahydro-1H-cyclopenta[b][1,7]naphthyridine-4,6-dione Hydrochloride] | – | 3980 nM | 1000 nM | – | – | – | – | – | 100% | 83% | 0.022 | – | – | –
4 | O=C1COCC2=C1C(c1ccc(F)c(Br)c1)C1=C(COCC1=O)N2 [Example 1, 5-(3-bromo-4-fluorophenyl)-5,10-dihydro-1H,3H-dipyrano[3,4-b:4,3-e]pyridine-4,6(7H,9H)-dione] | 27 nM | – | – | – | 0.36 | 97 % P1075 | 6.9 | 96 % P1075 | – | – | – | – | – | –
5 | Cl.O=C1CNCC2=C1C(c1ccc(F)c(Br)c1)C1=C(COC1=O)N2 (stereo not drawn) [Example 39, 9-(3-bromo-4-fluorophenyl)-5,6,7,9-tetrahydrofuro[3,4-b][1,7]naphthyridine-1,8(3H,4H)-dione Hydrochloride] | – | – | – | 680 nM | – | – | – | – | 96% | – | 0.036 | 5.6 | 80 % P1075 | –
6 | Cl.O=C1CNCC2=C1C(c1ccc(F)c(Br)c1)C1=C(CCS1(=O)=O)N2 (stereo not drawn) [Example 10, 9-(3-Bromo-4-fluorophenyl)-2,3,5,6,7,9-hexahydrothieno [3,2-b][1,7]naphthyridin-8(4H)-one, 1,1-dioxide hydrochloride] | 1400 nM | – | – | – | 0.0028 | 96 % P1075 | 4.3 | 87 % P1075 | – | – | – | – | – | –
7 | O=C1COCC2=C1C(c1ccc(F)c(I)c1)C1=C(COCC1=O)N2 [Example 30, 5-(4-fluoro-3-iodophenyl)-5,10-dihydro-1H,3H-dipyrano[3,4-b:4,3-e]pyridine-4,6(7H,9H)-dione] | 5 nM | – | – | – | 1.1 | 100 % P1075 | 7.6 | 81 % P1075 | – | – | – | – | – | –
8 | Cl.O=C1CCCC2=C1C(c1ccc(F)c(Br)c1)C1=C(CNCC1=O)N2 (single isomer, unassigned; (+)) [Example 8, (+)-5-(3-bromo-4-fluorophenyl)-2,3,5,8,9,10-hexahydrobenzo[b][1,7]naphthyridine-4,6(1H, 7H)-dione Hydrochloride] | – | – | – | 5000 nM | – | – | – | – | – | – | 0.023 | 5.2 | 33 % P1075 | 90 % P1075
9 | Cl.O=C1CCCC2=C1C(c1ccc(F)c(Br)c1)C1=C(CNCC1=O)N2 (stereo not drawn) [Example 2, 5-(3-bromo-4-fluorophenyl)-2,3,5,8,9,10-hexahydrobenzo [b][1,7]naphthyridine-4,6(1H, 7H)-dione Hydrochloride] | – | – | – | 650 nM | – | – | – | – | – | – | 0.041 | 5.8 | 88 % P1075 | 99 % P1075
10 | O=C1COCC2=C1C(c1ccc3nonc3c1)C1=C(COCC1=O)N2 [Example 34, 5-(2,1,3-benzoxadiazol-5-yl)-5,10-dihydro-1H,3H-dipyrano[3,4-b:4,3-e]pyridine-4,6(7H,9H)-dione] | 91 nM | – | – | – | 0.96 | 93 % P1075 | 7.0 | 88 % P1075 | – | – | – | – | – | –
11 | Cl.O=C1CNCC2=C1C(c1ccc(F)c(Br)c1)C1=C(COC1=O)N2 (stereo not drawn) [Example 40, 9-(3-bromo-4-fluorophenyl)-5,6,7,9-tetrahydrofuro [3,4-b][1,7]naphthyridine-1,8(3H,4H)-dione hydrochloride] | – | – | – | 320 nM | – | – | – | – | – | – | 0.13 | 6.0 | 111 % P1075 | 91 % P1075
12 | O=C1COCC2=C1C(c1ccc(F)c(Br)c1)C1=C(CCS1(=O)=O)N2 (single isomer, unassigned; (-)) [Example 13, (−)-9-(3-bromo-4-fluorophenyl)-2,3,5,9-tetrahydro-4H-pyrano[3,4-b]thieno[2,3-e]pyridin-8(7H)-one 1,1-dioxide] | 240 nM | – | – | – | 0.13 | 98 % P1075 | 5.9 | 101 % P1075 | – | – | – | – | – | –
13 | Cl.O=C1CNCC2=C1C(c1ccc(F)c(Br)c1)C1=C(CCCS1(=O)=O)N2 (stereo not drawn) [Example 9, 10-(3-bromo-4-fluorophenyl)-3,4,6,7,8,10-hexahydro-2H-thiopyrano[3,2-b][1,7]naphthyridin-9(5H)-one 1,1-dioxide Hydrochloride] | – | 126000 nM | 2600 nM | – | 0.0015 | – | – | – | 82% | 89% | – | – | – | –

Further lines, with some results ahead:

Row | EC50 [1] | EC50 (Landrace Pig Bladder) | EC50 ([1]; Cavia porcellus) | EC50 ([1]; Hydrochloride) | SMILES | Index (Landrace Pig Bladder) | Efficacy (% P1075) (Landrace Pig Bladder) | pD2 (Landrace Pig Bladder) | Maximal Response (% P1075) [1] | Emax (Landrace Pig Bladder) | Emax ([1]; Cavia porcellus) | Index (Landrace Pig Bladder; Hydrochloride) | pD2 (Landrace Pig Bladder; Hydrochloride) | Maximal Response (% P1075) ([1]; Hydrochloride) | Efficacy (% P1075) (Landrace Pig Bladder; Hydrochloride)
14 | – | 79.4 nM | 4.9 nM | – | O=C1COCC2=C1[C@H](c1ccc(F)c(I)c1)C1=C(COC1=O)N2 (single isomer, unassigned) [Example 78] | 0.79 | – | – | – | 96% | 97% | – | – | – | –
15 | 250 nM | – | – | – | C=C(C)c1cc(C2C3=C(COCC3=O)NC3=C2C(=O)COC3)ccc1F [Example 64, 5-(4-fluoro-3-isopropenylphenyl)-5,10-dihydro-1H,3H-dipyrano[3,4-b:4,3-e]pyridine-4,6(7H,9H)-dione] | 0.031 | 95 % P1075 | 5.5 | 84 % P1075 | – | – | – | – | – | –
16 | 99 nM | – | – | – | Cc1ccc(C2C3=C(COCC3=O)NC3=C2C(=O)COC3)cc1[N+](=O)[O-] [Example 59, 5-(4-methyl-3-nitrophenyl)-5,10-dihydro-1H,3H-dipyrano[3,4-b:4,3-e]pyridine-4,6(7H,9H)-dione] | 0.17 | 73 % P1075 | 5.9 | 94 % P1075 | – | – | – | – | – | –
17 | 19 nM | – | – | – | Cc1ccc(C2C3=C(COCC3=O)NC3=C2C(=O)COC3)cc1Br [Example 53, 5-(3-bromo-4-methylphenyl)-5,10-dihydro-1H,3H-dipyrano[3,4-b:4,3-e]pyridine-4,6(7H,9H)-dione] | 0.44 | 100 % P1075 | 7.0 | 98 % P1075 | – | – | – | – | – | –
18 | 46 nM | – | – | – | O=C1COCC2=C1C(c1cc(Br)c(F)cc1O)C1=C(COCC1=O)N2 [Example 58, 5-(5-bromo-4-fluoro-2-hydroxyphenyl)-5,10-dihydro-1H,3H-dipyrano[3,4-b:4,3-e]pyridine-4,6(7H,9H)-dione] | 0.19 | 84 % P1075 | 6.2 | 94 % P1075 | – | – | – | – | – | –
19 | – | 5010 nM | 380 nM | – | O=C1COCC2=C1C(c1ccc(F)c(Br)c1)C1=C(CCNC1=O)N2 (stereo not drawn) [Example 52, 10-(3-bromo-4-fluorophenyl)-3,4,6,10-tetrahydro-2H-pyrano[3,4-b][1,6]naphthyridine-1,9(5H,8H)-dione] | 0.069 | – | – | – | 99% | 105% | – | – | – | –
20 | – | 631 nM | 84 nM | – | O=C1CCCC2=C1C(c1ccc(F)c(Br)c1)C1=C(CSCC1=O)N2 (stereo not drawn) [Example 50, 5-(3-bromo-4-fluorophenyl)-5,8,9,10-tetrahydro-1H-thiopyrano[3,4-b]quinoline-4,6(3H,7H)-dione] | 0.28 | – | – | – | 96% | 108% | – | – | – | –
21 | 9.5 nM | – | – | – | Cc1ccc(C2C3=C(COCC3=O)NC3=C2C(=O)COC3)cc1I [Example 54, 5-(3-iodo-4-methylphenyl)-5,10-dihydro-1H,3H-dipyrano[3,4-b:4,3-e]pyridine-4,6(7H,9H)-dione] | 0.48 | 100 % P1075 | 6.9 | 101 % P1075 | – | – | – | – | – | –
